Data: ChEMBL document CHEMBL5149980, “The Alpha Keto Amide Moiety as a Privileged Motif in Medicinal Chemistry: Current Insights and Emerging Opportunities” (J Med Chem, 2021)
Converted amounts (≈) assume the structure as drawn.

How the values were obtained:
Translocator protein [1] = target: T1, Translocator protein (Homo sapiens, UniProt P30536); assay: Displacement of [3H] PK11195 from TSPO in human U-87 MGcell membrane assessed as inhibition constant; type: cell membranes, U-87 MG
[2] = target: Translocator protein (Rattus norvegicus) (UniProt P16257); assay: Activation of TSPO in rat C6 glioma cells assessed as increase in pregnenolone incubated for 2 hrs by radioimmuno assay; type: cell-based; design: concentration or dose not given beside the values; conditions: filed as activator
[3] = target: T2, Phospholipase A2, membrane associated (Homo sapiens, UniProt P14555); assay: Inhibition of human group IIA phospholipase A2 incubated for 30 mins by automatic plate reader analysis
T2 sequence (P14555 whole entry): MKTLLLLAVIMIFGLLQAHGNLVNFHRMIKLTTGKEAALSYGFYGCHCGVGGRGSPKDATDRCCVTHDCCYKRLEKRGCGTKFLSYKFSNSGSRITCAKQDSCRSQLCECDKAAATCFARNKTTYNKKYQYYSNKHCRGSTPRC

SARS-CoV-2 = assay: Antiviral activity against SARS-CoV-2 infected in human Calu-3 cells; type: functional, organism-based; conditions: Severe acute respiratory syndrome coronavirus 2, Calu-3
[4] = target: Replicase polyprotein 1ab (Severe acute respiratory syndrome coronavirus 2, UniProt P0DTD1); assay: Inhibition of SARS-Cov-2 Main protease
Staphylococcus aureus [5] = assay: Antibacterial activity against Staphylococcus aureus assessed as bacterial growth inhibition incubated for 24 hrs by microplate reader analysis; type: functional
[6] = target: GABA-A receptor; alpha-1/beta-2/gamma-2 (Homo sapiens) (UniProt P14867+P47870+P18507); assay: Inhibition of alpha1beta2gamma2 GABAA receptor (unknown origin) relative to control; type: protein-complex assay
[7] = target: GABA-A receptor; alpha-5/beta-3/gamma-2 (Homo sapiens) (UniProt P18507+P28472+P31644); assay: Inhibition of alpha5beta3gamma2 GABAA receptor (unknown origin) relative to control; type: protein-complex assay
[8] = target: GABA A receptor alpha-2/beta-2/gamma-2 (Homo sapiens) (UniProt P47870+P18507+P47869); assay: Inhibition of alpha2beta2gamma2 GABAA receptor (unknown origin) relative to control; type: protein-complex assay
Pseudomonas aeruginosa = assay: Inhibition of quorum sensing system in Pseudomonas aeruginosa MH602 assessed as GFP level incubated for 15 hrs at 250 uM by microplate titre analysis relative to control; type: functional
Escherichia coli [9] = assay: Inhibition of quorum sensing system in Escherichia coli MT102 assessed as GFP level incubated for 22 hrs at 250 uM by microplate titre analysis relative to control; type: functional
Phospholipase A2 group V [10] = target: Phospholipase A2 group V (Homo sapiens, UniProt P39877); assay: Inhibition of human group V phospholipase A2 expressed in Escherichia coli BL21(DE3) cells incubated for 10 to 20 mins cells by radiometric assay
[11] = target: Group IIE secretory phospholipase A2 (Homo sapiens, UniProt Q9NZK7); assay: Inhibition of human group IIE phospholipase A2 expressed in Escherichia coli BL21 cells incubated for 10 to 20 mins cells by radiometric assay
[12] = target: T2, Phospholipase A2, membrane associated; assay: Inhibition of human group IIA phospholipase A2 preincubated with compound for 10 mins followed by enzyme addition and measured after 30 mins by PC/DOC assay
[13] = target: Phospholipase A2, membrane associated (Mus musculus, UniProt P31482); assay: Inhibition of mouse group IIA phospholipase A2 incubated for 10 to 20 mins cells by radiometric assay
[14] = target: Group 10 secretory phospholipase A2 (Homo sapiens, UniProt O15496); assay: Inhibition of human group X phospholipase A2 incubated for 10 to 20 mins cells by radiometric assay
Phospholipase A2 [15] = target: Phospholipase A2 (Homo sapiens, UniProt P04054); assay: Inhibition of human group IB phospholipase A2 expressed in Escherichia coli BL21 cells incubated for 10 to 20 mins cells by radiometric assay
Phospholipase A2 group V [16] = target: Phospholipase A2 group V (Mus musculus, UniProt P97391); assay: Inhibition of mouse group V phospholipase A2 incubated for 10 to 20 mins cells by radiometric assay
[17] = target: T2, Phospholipase A2, membrane associated; assay: Inhibition of human group IIA phospholipase A2 incubated for 10 to 20 mins cells by radiometric assay
[18] = target: Group IIC secretory phospholipase A2 (Mus musculus, UniProt P48076); assay: Inhibition of mouse group IIC phospholipase A2 incubated for 10 to 20 mins cells by radiometric assay
[19] = target: Group IIE secretory phospholipase A2 (Mus musculus, UniProt Q9QUL3); assay: Inhibition of mouse group IIE phospholipase A2 incubated for 10 to 20 mins cells by radiometric assay
[20] = target: Group 10 secretory phospholipase A2 (Mus musculus, UniProt Q9QXX3); assay: Inhibition of mouse group X phospholipase A2 incubated for 10 to 20 mins cells by radiometric assay
Phospholipase A2 [21] = target: Phospholipase A2 (Mus musculus, UniProt Q9Z0Y2); assay: Inhibition of mouse group IB phospholipase A2 incubated for 10 to 20 mins cells by radiometric assay
Translocator protein [22] = target: Translocator protein (Rattus norvegicus, UniProt P16257); assay: Displacement of [3H]-PK11195 from rat kidney mitochondrial membrane TSPO receptor assessed as inhibition constant; type: cell membranes
Translocator protein [23] = target: T1, Translocator protein; assay: Displacement of [3H] PK11195 from TSPO (unknown origin) assessed as inhibition constant
[24] = Inhibition of SARS-CoV Main protease; design: species or system Severe acute respiratory syndrome-related coronavirus
[25] = Inhibition of MERS-CoV Main protease; design: species or system Middle East respiratory syndrome-related coronavirus
Staphylococcus aureus [26] = assay: Antibacterial activity against Staphylococcus aureus SA38 infected in MRC5 assessed as bacterial growth inhibition by alamar blue assay; type: functional
Procathepsin L = Procathepsin L (Homo sapiens, UniProt P07711); assay: Inhibition of human Cathepsin L assessed as inhibition constant
Cathepsin K = Cathepsin K (Homo sapiens, UniProt P43235); assay: Inhibition of human Cathepsin K assessed as inhibition constant
[27] = target: Dipeptidyl peptidase 1 (Homo sapiens) (UniProt P53634); assay: Inhibition of human Cathepsin C assessed as inhibition constant at 10 uM relative to control
Homo sapiens = species: Homo sapiens; assay: Inhibition of human Cathepsin H assessed as inhibition constant at 10 uM relative to control
Cathepsin S = Cathepsin S (Homo sapiens, UniProt P25774); assay: Inhibition of human Cathepsin S assessed as inhibition constant
[28] = target: Calpain-1 catalytic subunit (Homo sapiens, UniProt P07384); assay: Inhibition of human Calpain I assessed as dissociation constant using Suc-Leu-Tyr-AMC as substrate preincubated for 15 mins followed by compound addition and measured after 40 mins by […]
Cathepsin B = Cathepsin B (Homo sapiens, UniProt P07858); assay: Inhibition of human Cathepsin B assessed as inhibition constant
Pseudomonas putida = assay: Antibacterial activity against Pseudomonas putida assessed as bacterial growth inhibition by microdilution analysis; type: functional
Bacillus cereus = assay: Antibacterial activity against Bacillus cereus assessed as bacterial growth inhibition by microdilution analysis; type: functional
Staphylococcus aureus [29] = assay: Antibacterial activity against Staphylococcus aureus assessed as bacterial growth inhibition by microdilution analysis; type: functional
Escherichia coli [30] = assay: Antibacterial activity against Escherichia coli assessed as bacterial growth inhibition by microdilution analysis; type: functional

T1 sequence (P30536 whole entry): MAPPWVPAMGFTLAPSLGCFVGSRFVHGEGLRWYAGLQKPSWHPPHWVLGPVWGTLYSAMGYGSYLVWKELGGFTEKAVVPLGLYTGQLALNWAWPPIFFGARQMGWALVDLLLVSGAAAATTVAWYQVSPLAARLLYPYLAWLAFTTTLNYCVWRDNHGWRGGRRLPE
Chain of Translocator protein (Rattus norvegicus) (P16257 whole entry, looked up): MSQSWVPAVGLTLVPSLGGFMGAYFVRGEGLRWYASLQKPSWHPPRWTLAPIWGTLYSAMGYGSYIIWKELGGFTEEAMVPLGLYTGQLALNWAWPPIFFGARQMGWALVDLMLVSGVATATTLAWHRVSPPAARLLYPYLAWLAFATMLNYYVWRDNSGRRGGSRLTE
Chain of Group IIE secretory phospholipase A2 (Homo sapiens, UniProt Q9NZK7) (Q9NZK7 whole entry): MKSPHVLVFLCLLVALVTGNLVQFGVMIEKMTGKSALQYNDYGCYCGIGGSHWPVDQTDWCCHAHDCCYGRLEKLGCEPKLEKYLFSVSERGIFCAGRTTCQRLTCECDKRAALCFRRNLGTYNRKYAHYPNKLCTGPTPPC
Chain of Group IIE secretory phospholipase A2 (Mus musculus, UniProt Q9QUL3) (Q9QUL3 whole entry): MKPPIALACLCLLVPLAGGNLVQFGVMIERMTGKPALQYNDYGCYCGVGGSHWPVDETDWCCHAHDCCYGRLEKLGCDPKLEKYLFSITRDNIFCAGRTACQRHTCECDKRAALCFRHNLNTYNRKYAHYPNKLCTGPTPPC
Chain of Procathepsin L (P07711 whole entry): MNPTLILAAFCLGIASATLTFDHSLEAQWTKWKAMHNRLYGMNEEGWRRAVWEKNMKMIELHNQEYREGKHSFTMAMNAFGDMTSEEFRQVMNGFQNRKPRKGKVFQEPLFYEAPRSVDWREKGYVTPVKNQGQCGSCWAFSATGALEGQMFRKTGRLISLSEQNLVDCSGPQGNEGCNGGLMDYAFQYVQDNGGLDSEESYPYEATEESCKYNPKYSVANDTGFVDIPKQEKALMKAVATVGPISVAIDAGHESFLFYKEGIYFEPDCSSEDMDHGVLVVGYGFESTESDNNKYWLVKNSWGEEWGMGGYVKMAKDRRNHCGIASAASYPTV
Chain of Phospholipase A2 group V (Mus musculus, UniProt P97391) (P97391 whole entry): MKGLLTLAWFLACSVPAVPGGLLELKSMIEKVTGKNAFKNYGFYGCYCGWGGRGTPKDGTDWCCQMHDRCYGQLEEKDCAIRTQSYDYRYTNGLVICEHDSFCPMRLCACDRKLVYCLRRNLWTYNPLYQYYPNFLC
Chain of Group 10 secretory phospholipase A2 (Homo sapiens, UniProt O15496) (O15496 whole entry): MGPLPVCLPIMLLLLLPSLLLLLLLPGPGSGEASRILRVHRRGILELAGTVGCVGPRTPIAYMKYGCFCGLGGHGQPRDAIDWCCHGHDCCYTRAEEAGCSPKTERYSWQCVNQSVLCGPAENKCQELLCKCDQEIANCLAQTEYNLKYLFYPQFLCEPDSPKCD
Chain of Cathepsin K (P43235 whole entry): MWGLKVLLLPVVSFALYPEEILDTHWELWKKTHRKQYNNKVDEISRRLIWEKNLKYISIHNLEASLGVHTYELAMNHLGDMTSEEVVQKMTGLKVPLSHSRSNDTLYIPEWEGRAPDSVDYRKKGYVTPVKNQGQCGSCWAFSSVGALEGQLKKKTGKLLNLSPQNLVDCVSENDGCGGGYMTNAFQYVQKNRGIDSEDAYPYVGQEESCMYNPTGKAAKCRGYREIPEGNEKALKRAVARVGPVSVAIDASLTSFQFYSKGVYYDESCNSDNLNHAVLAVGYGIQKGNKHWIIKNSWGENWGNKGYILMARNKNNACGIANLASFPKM
Chain of Group IIC secretory phospholipase A2 (P48076 whole entry): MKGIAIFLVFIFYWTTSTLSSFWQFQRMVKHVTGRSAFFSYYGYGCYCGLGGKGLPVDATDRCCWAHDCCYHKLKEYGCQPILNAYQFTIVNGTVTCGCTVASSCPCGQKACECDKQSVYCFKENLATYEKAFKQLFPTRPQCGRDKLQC
Chain of Phospholipase A2, membrane associated (Mus musculus, UniProt P31482) (P31482 whole entry): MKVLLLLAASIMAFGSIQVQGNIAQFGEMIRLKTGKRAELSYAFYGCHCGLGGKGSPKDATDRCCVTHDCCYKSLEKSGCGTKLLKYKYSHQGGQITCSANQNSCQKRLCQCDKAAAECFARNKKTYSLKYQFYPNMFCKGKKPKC
Chain of Translocator protein (Rattus norvegicus, UniProt P16257) (P16257 whole entry, looked up): as the sequence (P16257 whole entry, looked up) above
Chain of Cathepsin S (P25774 whole entry): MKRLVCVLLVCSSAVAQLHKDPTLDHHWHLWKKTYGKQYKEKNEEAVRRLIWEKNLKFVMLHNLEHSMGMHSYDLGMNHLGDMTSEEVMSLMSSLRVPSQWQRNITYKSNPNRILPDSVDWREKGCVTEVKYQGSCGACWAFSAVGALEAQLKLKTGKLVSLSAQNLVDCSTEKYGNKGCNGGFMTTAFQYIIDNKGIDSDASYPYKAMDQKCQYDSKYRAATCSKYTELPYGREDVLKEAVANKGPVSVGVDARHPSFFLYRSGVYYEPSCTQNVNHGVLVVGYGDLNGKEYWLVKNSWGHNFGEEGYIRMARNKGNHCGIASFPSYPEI
Chain of Phospholipase A2 (Homo sapiens, UniProt P04054) (P04054 whole entry): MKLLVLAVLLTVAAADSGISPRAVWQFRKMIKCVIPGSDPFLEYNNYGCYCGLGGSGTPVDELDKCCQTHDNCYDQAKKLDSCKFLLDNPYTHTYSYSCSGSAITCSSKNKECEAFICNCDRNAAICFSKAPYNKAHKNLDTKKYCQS
Chain of Phospholipase A2 (Mus musculus, UniProt Q9Z0Y2) (Q9Z0Y2 whole entry): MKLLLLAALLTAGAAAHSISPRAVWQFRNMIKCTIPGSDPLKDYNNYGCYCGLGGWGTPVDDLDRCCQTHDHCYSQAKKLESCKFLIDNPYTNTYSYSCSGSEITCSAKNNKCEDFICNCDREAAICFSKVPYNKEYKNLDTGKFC
Chain of Group 10 secretory phospholipase A2 (Mus musculus, UniProt Q9QXX3) (Q9QXX3 whole entry): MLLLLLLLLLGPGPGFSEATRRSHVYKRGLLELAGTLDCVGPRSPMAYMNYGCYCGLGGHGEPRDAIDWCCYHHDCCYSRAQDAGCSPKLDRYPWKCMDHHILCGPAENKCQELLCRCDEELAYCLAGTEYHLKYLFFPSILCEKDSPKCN
Chain of Phospholipase A2 group V (Homo sapiens, UniProt P39877) (P39877 whole entry): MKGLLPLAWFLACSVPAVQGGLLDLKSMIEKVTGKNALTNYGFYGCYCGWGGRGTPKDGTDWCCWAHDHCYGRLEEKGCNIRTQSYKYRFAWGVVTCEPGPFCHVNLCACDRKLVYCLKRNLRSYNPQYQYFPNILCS
Chain of Calpain-1 catalytic subunit (P07384 whole entry): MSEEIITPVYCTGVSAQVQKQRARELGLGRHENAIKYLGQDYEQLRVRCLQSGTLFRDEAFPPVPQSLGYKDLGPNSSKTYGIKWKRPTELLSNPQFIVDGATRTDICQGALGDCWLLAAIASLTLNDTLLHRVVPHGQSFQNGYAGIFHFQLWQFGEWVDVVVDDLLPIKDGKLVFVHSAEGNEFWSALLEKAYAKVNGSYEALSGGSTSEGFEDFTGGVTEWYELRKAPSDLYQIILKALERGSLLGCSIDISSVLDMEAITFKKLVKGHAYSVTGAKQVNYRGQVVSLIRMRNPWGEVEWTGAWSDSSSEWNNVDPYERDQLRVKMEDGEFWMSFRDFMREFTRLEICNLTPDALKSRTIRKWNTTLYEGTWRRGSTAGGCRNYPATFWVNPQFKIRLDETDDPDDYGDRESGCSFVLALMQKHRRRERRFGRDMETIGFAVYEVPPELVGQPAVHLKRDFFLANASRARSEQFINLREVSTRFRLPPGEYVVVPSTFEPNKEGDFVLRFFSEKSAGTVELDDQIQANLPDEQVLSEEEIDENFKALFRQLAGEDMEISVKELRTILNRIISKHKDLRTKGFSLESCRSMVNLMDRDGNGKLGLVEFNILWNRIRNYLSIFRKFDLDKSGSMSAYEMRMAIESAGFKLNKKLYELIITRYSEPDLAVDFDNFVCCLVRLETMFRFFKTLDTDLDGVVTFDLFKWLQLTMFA
Chain of Dipeptidyl peptidase 1 (Homo sapiens) (P53634 25-134 limits assumed): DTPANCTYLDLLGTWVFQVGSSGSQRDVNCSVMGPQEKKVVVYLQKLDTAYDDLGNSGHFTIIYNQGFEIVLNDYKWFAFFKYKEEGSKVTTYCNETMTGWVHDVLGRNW
Chain of Dipeptidyl peptidase 1 (Homo sapiens) (P53634 231-394 limits assumed): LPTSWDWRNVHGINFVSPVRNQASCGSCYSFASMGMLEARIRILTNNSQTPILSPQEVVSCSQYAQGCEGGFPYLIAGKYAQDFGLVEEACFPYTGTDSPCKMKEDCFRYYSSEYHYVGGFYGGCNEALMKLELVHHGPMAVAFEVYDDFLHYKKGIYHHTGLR
Chain of Dipeptidyl peptidase 1 (Homo sapiens) (P53634 395-463 limits assumed): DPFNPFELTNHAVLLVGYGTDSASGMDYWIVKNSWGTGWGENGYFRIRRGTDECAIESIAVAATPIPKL

CCOC(=O)[C@@H](Cc1ccccc1)NC(=O)[C@H](CC(C)C)NC(=O)C(=O)c1c(-c2ccccc2)[nH]c2ccc(N=C=S)cc12
Ki (Translocator protein [1]): 108 nM

CCCCCCN(CCCCCC)C(=O)C(=O)c1c(-c2ccc(Cl)cc2)[nH]c2ccc(Cl)cc12
Activity [2]: 166%

CCc1c(C(=O)C(N)=O)c2c(OCC(O)CC)cccn2c1Cc1cccc(Cl)c1 (stereo not given)
IC50 [3]: 19000 nM

CN1C(=O)CN=C(c2ccc(Cl)cc2)c2cc(Cl)ccc21
Activity [2]: 41%

Nc1cccn([C@@H](CC2CC2)C(=O)N[C@@H](C[C@@H]2CCNC2=O)C(=O)C(=O)NCc2ccccc2)c1=O
EC50 (SARS-CoV-2): 4 µM

CC(C)(C)OC(=O)Nc1cccn([C@@H](CC2CCCCC2)C(=O)N[C@@H](C[C@@H]2CCNC2=O)C(=O)C(=O)NCc2ccccc2)c1=O
IC50 [4]: 2390 nM

C[N+](C)(C)CCCNC(=O)C(=O)c1cc(Br)ccc1NC(=O)c1ccc2ccccc2c1.[I-]
MIC (Staphylococcus aureus [5]): 39 µg/mL

O=C(NCc1ccccc1)C(=O)c1c[nH]c2ccc([N+](=O)[O-])cc12
inhibition [6]: 65% | inhibition [7]: 44% | inhibition [8]: 32%

CCCCN(CCCC)C(=O)C(=O)c1c(-c2ccc(Cl)cc2)[nH]c2ccc(Cl)cc12
Activity [2]: 147%

CCOC(=O)CNC(=O)C(=O)c1ccccc1Nc1ccc([N+](=O)[O-])cc1[N+](=O)[O-]
inhibition (Pseudomonas aeruginosa): 48.7% | inhibition (Escherichia coli [9]): 73.6%

CCC(C)N(C)C(=O)c1cc2ccccc2c(-c2ccccc2Cl)n1 (stereo not given)
Activity [2]: 48%

Cc1c(C(=O)C(N)=O)c2c(OCC(=O)O)cccn2c1Cc1ccccc1-c1ccccc1
IC50 (Phospholipase A2 group V [10]): 10 nM | IC50 [11]: 10 nM | IC50 [12]: 1.4 nM | IC50 [13]: 10 nM | IC50 [14]: 100 nM | IC50 (Phospholipase A2 [15]): 100 nM | IC50 (Phospholipase A2 group V [16]): 10 nM | IC50 [17]: 10 nM | IC50 [18]: 10 nM | IC50 [19]: 10 nM | IC50 [20]: 100 nM | IC50 (Phospholipase A2 [21]): 100 nM

CCCN(CCC)C(=O)C(=O)c1c(-c2ccccc2)[nH]c2ccc(C)cc12
Activity [2]: 148% | Ki (Translocator protein [22]): 5.5 nM

Cc1c(C(=O)C(N)=O)c2c(OCn3cnnn3)cccn2c1Cc1ccccc1-c1ccccc1
IC50 [12]: 7 nM | IC50 [3]: 7 nM

CCOC(=O)[C@@H](Cc1ccccc1)NC(=O)[C@H](CC(C)C)NC(=O)C(=O)c1c(-c2ccccc2)[nH]c2ccccc12
Ki (Translocator protein [23]): 438 nM

CC(C)(C)OC(=O)Nc1cccn([C@@H](CC2CC2)C(=O)N[C@@H](C[C@@H]2CCNC2=O)C(=O)C(=O)NCc2ccccc2)c1=O
IC50 [24]: 900 nM | IC50 [25]: 580 nM

CCc1c(C(=O)C(=O)NC)c2c(OCC(=O)O)cccn2c1Cc1ccccc1
IC50 [3]: > 50000 nM

CCCCCCCCCS(=O)(=O)Nc1ccc(Br)cc1C(=O)C(=O)NCCCNC(=N)N
MIC (Staphylococcus aureus [26]): 12 µM (≈ 6.39 µg/mL)

C[N+](C)(C)CCCNC(=O)C(=O)c1cc(Br)ccc1NC(=O)c1ccc2ccccc2c1.[Cl-]
MIC (Staphylococcus aureus [5]): 16 µg/mL

CCc1c(CC(N)=O)c2c(OCC(=O)O)cccn2c1Cc1cccc2ccccc12
IC50 [12]: 5 nM | IC50 [3]: 30 nM

CCN(CC)c1ccc(/C=C/c2ccccc2C(=O)NC(Cc2ccccc2)C(=O)C(N)=O)cc1 (stereo not given)
Ki (Procathepsin L): 137 nM | Ki (Cathepsin K): 1.8 nM | inhibition [27]: 94% | inhibition (Homo sapiens): 84% | Ki (Cathepsin S): 3.29 µM | Ki [28]: 56 nM | Ki (Cathepsin B): 28 nM

CC(C)C[C@H](NC(=O)C(=O)c1c(-c2ccccc2)[nH]c2ccccc12)C(=O)N[C@H](Cc1ccccc1)C(=O)O
Ki (Translocator protein [23]): 202 nM

O=C(Nc1ccc(F)cc1)C(=O)c1ccc2c(c1)c1ccccc1n2Cc1ccc(Cl)cc1
MIC (Pseudomonas putida): 16 µg/mL | MIC (Bacillus cereus): 16 µg/mL | MIC (Staphylococcus aureus [29]): > 8 µg/mL | MIC (Escherichia coli [30]): 8 µg/mL
